Calls of active or inactive are those of the source. No cut-off for these calls is given here.
What was measured:
A-375 [1] = assay: Induction of cell cycle arrest in human A-375 cells assessed as accumulation of cells at S phase at 20 nM incubated for 24 hrs by PI based flow cytometric analysis (RVB = 26.73%); type: functional
[2] = Tmax in Kunming mouse plasma at 10 mg/kg, iv administered as single dose measured after 5 to 360 mins by HPLC analysis; type: ADME, organism-based; conditions: time 5-360 min
[3] = Toxicity in BALB/c nude mouse xenografted with human A-375 cells assessed as body weight loss treated after 7 days of tumor implantation on right flank subcutaneously at 10 to 20 mg/kg, iv administered once per 2 days for 14 days measured once every two days; type: organism-based; conditions: in vivo, 336 h, dose 10-20 mg/kg, time 14 day
HCT-116 [4] = assay: Antiproliferative activity against doxorubicin resistant human HCT-116 cells measured after 72 hrs by MTT assay; type: functional, cell-based; conditions: HCT-116, 72 h
A-375 [5] = assay: In vivo induction of apoptosis in human A-375 cells xenografted in BALB/c nude mouse assessed as […] treated after 7 days of tumor implantation on right flank subcutaneously at 10 to 20 mg/kg, iv administered once per 2 days for 14 days by measuring TUNEL positive cells under a light microscope; type: functional, organism-based; conditions: dose 10-20 mg/kg, time 14.0 day
A-375 [6] = assay: Induction of apoptosis in human A-375 cells assessed as […] at 20 to 80 nM measured after 24 hrs by Annexin V-FITC and DAPI staining based flow cytometric analysis; type: functional; conditions: dose 20-80 nM
A-375 [7] = assay: Induction of apoptosis in human A-375 cells assessed as increase in expression level of C-caspase-8 measured after 24 hrs by Western blotting analysis; type: functional, cell-based; conditions: dose 40-120 nM, DDE = dose-dependent effect
[8] = Microsomal stability in mouse liver microsomes assessed as half life measured at 2 ug/ml upto 60 mins in presence of NADPH generating system and UGT incubation system by phase II metabolic stability kit method; type: ADME, Microsome; conditions: dose 2 µg/ml
A-375 [9] = assay: Antimigratory activity in human A-375 cells assessed as reduction in cell migration at 10 to 40 nM incubated for 24 hrs by crystal violet staining method; type: functional, cell-based; conditions: dose 10-40 nM
A-375 [10] = assay: Induction of apoptosis in human A-375 cells at 80 nM measured after 16 hrs by Annexin V-FITC and DAPI staining based flow cytometric analysis; type: functional
A-375 [11] = assay: Cytotoxicity against human A-375 cells expressing high level of topoisomerase I/II measured after 72 hrs by MTT assay; type: functional, cell-based; conditions: A-375, 72 h
[12] = In vivo acute toxicity in Balb/C mouse assessed as pathological damage in heart at 50 mg/kg, iv administered once per 2 days for 7 days measured 24 hrs after last dose by H and E staining method; type: organism-based; conditions: 168 h, time 7 day
A-375 [13] = assay: Induction of apoptosis in human A-375 cells assessed as increase in expression level of Bad measured after 24 hrs by Western blotting analysis; type: functional, cell-based; conditions: dose 40-120 nM, DDE = dose-dependent effect
[14] = In vivo acute toxicity in Balb/C mouse assessed as pathological damage in liver at 50 mg/kg, iv administered once per 2 days for 7 days measured 24 hrs after last dose by H and E staining method; type: organism-based; conditions: 168 h, time 7 day
[15] = Microsomal stability in mouse liver microsomes assessed as clearance measured at 2 ug/ml upto 60 mins in presence of NADPH generating system and UGT incubation system by phase II metabolic stability kit method; type: ADME, Microsome; conditions: dose 2 µg/ml, read-out: CLH
[16] = target: DNA topoisomerase 2-alpha (Homo sapiens) (UniProt P11388); assay: Poison activity at human topoisomerase II-alpha assessed as stabilization of enzyme-DNA cleavage complex by measuring nicked DNA formation at 100 uM after 60 mins by agarose gel electrophoresis method
Sequence of DNA topoisomerase 2-alpha (Homo sapiens) (P11388 whole entry): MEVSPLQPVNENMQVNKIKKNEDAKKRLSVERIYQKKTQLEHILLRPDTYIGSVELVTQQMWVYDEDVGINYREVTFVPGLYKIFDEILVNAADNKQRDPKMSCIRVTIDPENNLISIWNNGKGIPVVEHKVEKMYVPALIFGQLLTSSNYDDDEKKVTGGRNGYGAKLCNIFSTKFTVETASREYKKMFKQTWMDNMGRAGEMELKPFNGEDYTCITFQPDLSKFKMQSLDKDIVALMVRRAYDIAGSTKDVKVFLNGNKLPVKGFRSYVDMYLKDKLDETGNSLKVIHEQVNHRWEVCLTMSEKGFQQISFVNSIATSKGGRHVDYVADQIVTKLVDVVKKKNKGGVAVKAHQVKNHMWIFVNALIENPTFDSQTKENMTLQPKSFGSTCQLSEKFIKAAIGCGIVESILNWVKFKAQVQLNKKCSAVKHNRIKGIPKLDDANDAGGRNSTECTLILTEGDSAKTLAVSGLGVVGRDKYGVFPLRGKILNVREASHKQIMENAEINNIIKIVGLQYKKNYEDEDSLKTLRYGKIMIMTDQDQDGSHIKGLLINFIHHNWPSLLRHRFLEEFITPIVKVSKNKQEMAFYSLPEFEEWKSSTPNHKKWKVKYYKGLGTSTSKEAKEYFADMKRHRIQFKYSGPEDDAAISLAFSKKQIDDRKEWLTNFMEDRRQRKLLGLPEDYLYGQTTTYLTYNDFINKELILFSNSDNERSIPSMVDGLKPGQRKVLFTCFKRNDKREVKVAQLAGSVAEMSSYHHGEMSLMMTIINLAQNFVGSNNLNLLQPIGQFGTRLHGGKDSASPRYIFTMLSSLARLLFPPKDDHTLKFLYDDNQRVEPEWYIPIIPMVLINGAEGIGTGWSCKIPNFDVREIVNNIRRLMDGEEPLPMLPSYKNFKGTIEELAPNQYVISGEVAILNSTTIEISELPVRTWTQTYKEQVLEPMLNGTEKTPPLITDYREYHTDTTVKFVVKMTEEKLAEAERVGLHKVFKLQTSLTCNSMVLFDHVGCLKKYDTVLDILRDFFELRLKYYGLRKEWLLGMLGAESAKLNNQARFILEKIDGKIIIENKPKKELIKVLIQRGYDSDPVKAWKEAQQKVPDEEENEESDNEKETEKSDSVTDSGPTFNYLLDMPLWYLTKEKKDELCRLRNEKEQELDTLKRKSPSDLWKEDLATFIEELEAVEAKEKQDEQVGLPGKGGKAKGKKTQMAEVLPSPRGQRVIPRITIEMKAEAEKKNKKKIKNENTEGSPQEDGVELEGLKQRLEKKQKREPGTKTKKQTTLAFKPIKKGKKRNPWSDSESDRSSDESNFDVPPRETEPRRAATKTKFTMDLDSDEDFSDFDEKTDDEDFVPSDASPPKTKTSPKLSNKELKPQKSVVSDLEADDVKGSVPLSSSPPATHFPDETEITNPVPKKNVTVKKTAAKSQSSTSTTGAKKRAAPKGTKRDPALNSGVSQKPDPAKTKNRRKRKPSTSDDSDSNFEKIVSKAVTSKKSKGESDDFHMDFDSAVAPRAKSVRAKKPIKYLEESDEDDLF

Calf thymus DNA = assay: Binding affinity to calf thymus DNA assessed as intercalation by measuring hypochromic shift at 292 nm by […]; type: nucleic-acid assay; conditions: Bos taurus
[17] = In vivo acute toxicity in Balb/C mouse assessed as tolerability at 50 mg/kg, iv administered once per 2 days for 7 days measured every other day; type: organism-based; conditions: 168 h, time 7 day
A-375 [18] = assay: In vivo antitumor activity against human A-375 cells xenografted in BALB/c nude mouse assessed as decrease in tumor volume treated after 7 days of tumor implantation on right flank subcutaneously at 10 to 20 mg/kg, iv administered once per 2 days for 14 days measured once every two days; type: functional, organism-based; conditions: dose 10-20 mg/kg, time 14.0 day
[19] = Half life in Kunming mouse plasma at 10 mg/kg, iv administered as single dose measured after 5 to 360 mins by HPLC analysis; type: ADME, organism-based; conditions: time 5-360 min
[20] = Toxicity in BALB/c nude mouse xenografted with human A-375 cells assessed as tolerability treated after 7 days of tumor implantation on right flank subcutaneously at 20 mg/kg, iv administered once per 2 days for 14 days measured once every two days; type: organism-based; conditions: in vivo, 336 h, time 14 day
A-375 [21] = assay: Induction of cell cycle arrest in human A-375 cells assessed as accumulation of cells at G2 phase at 80 nM incubated for 24 hrs by PI based flow cytometric analysis (RVB = 20.34%); type: functional
[22] = Volume of distribution in Kunming mouse plasma at 10 mg/kg, iv administered as single dose measured after 5 to 360 mins by HPLC analysis; type: ADME, organism-based; conditions: time 5-360 min
[23] = Clearance in Kunming mouse plasma at 10 mg/kg, iv administered as single dose measured after 5 to 360 mins by HPLC analysis; type: ADME, organism-based; conditions: time 5-360 min
[24] = In vivo acute toxicity in Balb/C mouse assessed as pathological damage in spleen at 50 mg/kg, iv administered once per 2 days for 7 days measured 24 hrs after last dose by H and E staining method; type: organism-based; conditions: 168 h, time 7 day
[25] = In vivo acute toxicity in Balb/C mouse assessed as pathological damage in kidney at 50 mg/kg, iv administered once per 2 days for 7 days measured 24 hrs after last dose by H and E staining method; type: organism-based; conditions: 168 h, time 7 day
[26] = target: DNA topoisomerase 2-alpha (Homo sapiens) (UniProt P11388); assay: Inhibition of human DNA topoisomerase II-alpha relaxation activity at 100 uM incubated for 30 mins by chemiDoc system
HCT-116 [27] = assay: Inhibition of colony formation in human HCT-116 cells at 20 to 40 nM incubated for 48 hrs by crystal violet staining method; type: functional, cell-based; conditions: dose 20-40 nM
HCT-116 [28] = assay: Cytotoxicity against human HCT-116 cells expressing high level of topoisomerase I/II measured after 72 hrs by MTT assay; type: functional, cell-based; conditions: HCT-116, 72 h
A-375 [29] = assay: Induction of cell cycle arrest in human A-375 cells assessed as accumulation of cells at G1 phase at 20 nM incubated for 24 hrs by PI based flow cytometric analysis (RVB = 52.94%); type: functional
A-375 [30] = assay: Induction of apoptosis in human A-375 cells at 120 nM measured after 24 hrs by Annexin V-FITC and DAPI staining based flow cytometric analysis; type: functional
A-375 [31] = assay: Induction of apoptosis in human A-375 cells assessed as increase in expression level of C-caspase-3 measured after 24 hrs by Western blotting analysis; type: functional, cell-based; conditions: dose 40-120 nM, DDE = dose-dependent effect
[32] = Metabolic stability in mouse plasma upto 5 hrs by HPLC-UV analysis; type: ADME, cell-free

O=C1c2c[n+]([O-])c3ccccc3c2C(=O)c2c1c1ccccc1n2Cc1cn([C@@H]2C[C@H](O)[C@@H](CO)O2)nn1
Activity (A-375 [1]): 38.36%
Tmax [2]: 5 min
Activity [3]: Non-Toxic
IC50 (HCT-116 [4]): 70 nM
Activity (A-375 [5]): Active
Activity (A-375 [6]): 38.36%
Activity (A-375 [7]): Dde
half-life at 2 ug/ml [8]: 40 min
Activity (A-375 [9]): Active
Activity (A-375 [10]): 23.78%
IC50 (A-375 [11]): 20 nM
Activity [12]: Non-Toxic
Activity (A-375 [13]): Dde
Activity [14]: Non-Toxic
microsomal CLint at 2 ug/ml [15]: 35 µL/min/mg
Activity [16]: Active
Activity (Calf thymus DNA): 44%
Activity [17]: Non-Toxic
Activity (A-375 [18]): Active
half-life [19]: 151 min
Activity [20]: Non-Toxic
Activity (A-375 [21]): 6.88%
Vd [22]: 0.234 L/kg
clearance [23]: 1 mL/min/kg
Activity [24]: Non-Toxic
Activity [25]: Non-Toxic
inhibition [26]: Active
inhibition (HCT-116 [27]): Active
IC50 (HCT-116 [28]): 50 nM
Activity (A-375 [29]): 32.45%
Activity (A-375 [30]): 55.94%
Activity (A-375 [31]): Dde
Stability [32]: Stable

From ChEMBL document CHEMBL5154929, “Optimization of the Natural Product Calothrixin A to Discover Novel Dual Topoisomerase I and II Inhibitors with Improved Anticancer Activity” (J Med Chem, 2022)
